The text below walks through data of patent publication EP3180003B1 (The Regents of the University of California, priority 2014, dated 2016).

Read-outs that look alike come from different tables or passages of the source. Some results are limits rather than exact numbers.

Test [1] concerns the target T1, PKCε (Homo sapiens, UniProt Q02156).
T1 sequence (Q02156 1-737): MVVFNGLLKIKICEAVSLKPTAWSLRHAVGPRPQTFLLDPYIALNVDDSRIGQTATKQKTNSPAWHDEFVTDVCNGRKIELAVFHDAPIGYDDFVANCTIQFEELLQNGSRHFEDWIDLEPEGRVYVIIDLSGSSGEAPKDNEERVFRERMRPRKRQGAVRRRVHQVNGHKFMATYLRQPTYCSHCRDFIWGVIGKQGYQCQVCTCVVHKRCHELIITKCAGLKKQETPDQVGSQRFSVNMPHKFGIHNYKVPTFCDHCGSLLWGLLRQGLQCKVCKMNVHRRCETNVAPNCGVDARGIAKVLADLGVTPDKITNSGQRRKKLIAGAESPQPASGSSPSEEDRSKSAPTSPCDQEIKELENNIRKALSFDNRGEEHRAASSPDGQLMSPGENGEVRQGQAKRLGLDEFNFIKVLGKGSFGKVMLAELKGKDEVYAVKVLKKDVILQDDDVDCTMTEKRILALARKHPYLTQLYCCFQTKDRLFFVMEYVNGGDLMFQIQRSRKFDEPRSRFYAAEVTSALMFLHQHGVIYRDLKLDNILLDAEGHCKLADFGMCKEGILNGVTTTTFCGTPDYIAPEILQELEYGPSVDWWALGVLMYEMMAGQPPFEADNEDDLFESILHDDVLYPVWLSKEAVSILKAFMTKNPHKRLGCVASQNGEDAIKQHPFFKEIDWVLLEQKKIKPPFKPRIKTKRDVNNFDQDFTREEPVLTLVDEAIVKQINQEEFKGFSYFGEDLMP
The test can be described thus: FRET based LANCE Ultra kinase assay. The class given is biochemical. How it is done: Certain compounds of this invention were tested in the captioned assay.

The target of test [2] is T1, PKCε. Kind of test: Inhibition of PKCε (Example 4). The class given is biochemical.
The target of a further test is T2, PKCζ (Homo sapiens, UniProt Q05513).
T2 construct: purchased Invitrogen (Carlsbad, CA, USA)
T2 sequence (Q05513 1-592): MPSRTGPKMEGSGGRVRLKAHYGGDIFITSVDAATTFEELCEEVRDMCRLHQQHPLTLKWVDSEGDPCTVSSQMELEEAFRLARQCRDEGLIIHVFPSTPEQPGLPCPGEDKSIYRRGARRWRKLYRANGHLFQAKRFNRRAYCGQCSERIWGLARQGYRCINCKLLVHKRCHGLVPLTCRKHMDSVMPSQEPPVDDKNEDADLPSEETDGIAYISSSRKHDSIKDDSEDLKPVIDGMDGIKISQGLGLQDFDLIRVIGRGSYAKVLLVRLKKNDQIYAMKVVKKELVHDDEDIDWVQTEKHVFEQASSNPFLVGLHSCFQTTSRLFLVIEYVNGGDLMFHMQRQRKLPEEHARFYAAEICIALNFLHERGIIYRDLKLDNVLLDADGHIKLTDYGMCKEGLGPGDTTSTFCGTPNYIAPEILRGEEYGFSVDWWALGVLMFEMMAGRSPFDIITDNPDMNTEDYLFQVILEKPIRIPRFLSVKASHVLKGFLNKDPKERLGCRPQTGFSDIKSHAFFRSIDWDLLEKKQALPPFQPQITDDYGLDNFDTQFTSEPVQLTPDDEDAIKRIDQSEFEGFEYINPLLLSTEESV
Kind of test: Inhibition of atypical PKCζ (Example 4). The class given is biochemical. Conditions: for activity against atypical PKCζ: at 10 µM, result in words. How it is done:
(§1) For example, to measure inhibition of conventional PKCγ, novel PKCδ, and atypical PKCζ, the same kinase assay disclosed above for PKCε can be used with recombinant human PKCγ, PKCδ, or PKCζ purchased from Invitrogen (Carlsbad, CA, USA) in place of PKCs, with 0.4 mM CaCl2 assay buffer for PKCγ.
(§2) The specificity of the compounds disclosed herein for inhibition of PKCε can be determined by examining their ability to inhibit ROCK1 and selected members of each PKC subfamily according to the protocols of the counter-screening assay for selectivity disclosed herein. This assay can be performed according to the biochemical assay for PKCε described above with some modifications. Rather than varying the concentrations of the inhibitors, only 10µM of each compound can be used.

In a further test the target is T3, PKCγ (Homo sapiens, UniProt P05129).
T3 construct: purchased Invitrogen (Carlsbad, CA, USA)
The test can be described thus: Inhibition of conventional PKCγ (Example 4). The class given is biochemical. The settings on record: for inhibition of conventional PKCγ: at 10 µM, result in words. How it is done:
as §1, §2

Test [3] addresses T1, PKCε. The test can be described thus: Primary PKCε phosphotransferase assay. The class given is biochemical. Also on record: FLAG; made in house; host or cells: COS-7 cells. Conditions: log of molar IC50. How it is done:
The assay mixture can contain 2 ng FLAG-tagged human PKCε expressed and purified from COS-7 cells in 25 µl kinase buffer containing 20 mM Tris-HCI, pH 7.4, 0.25 mM EGTA, 0.1 mg/ml BSA, 0.72% TritonX-100, 10 mM MgCl2, 0.48 µg/µl L-α-phosphatidylserine (PS) and 0.107 µg/µl sn-1,2-dioleoylglecerol (DG) (Avanti Polar Lipids, Alabaster, AL, USA), 2 µM K(Biotin)-[…], 2.5 µM ATP and 0.05 µCi [^32γ-P]ATP. After incubation at 27 °C for 90 min, the reaction is terminated by adding 12.5 µl of 7.5 M of guanidine hydrochloride. Eight microliters of reaction mixture is spotted onto a pre-cut streptavidin-coated SAM Biotin Capture membrane. […] The membrane is then air dried at room temperature for 60 min and radioactivity remaining on the membrane can be measured by liquid scintillation counting. Specific PKCε activity can then be calculated as the difference between cpms detected in the presence and absence of lipids (PS and DG). Maximal PKCε activity (positive control) can be detected in reactions lacking an inhibitor. […]
IC50 values can be calculated from normalized dose-response curves by nonlinear regression analysis.
The ability of the compounds disclosed herein to inhibit PKCε can be assessed using the primary PKCε assay described above using the biotinylated substrate […]. […]

For test [4], the target named is T1, PKCε. Kind of test: Cell-based assay for PKCε modulation of GABAA receptors (γ2 S327 phosphorylation, ELISA format). Conditions: HEK293 cell line expressing α1β2γ2 GABAA receptors and over-expressing PKCε; anti-γ2S(P)327 ELISA.
Experimental: PKCε inhibition can also be measured by assaying benzodiazepine modulation of GABAA receptors in intact cells. PKCε decreases benzodiazepine potency at GABAA receptors by phosphorylating S327 of GABAA y2 subunits. The GABAA cell-based assay uses a HEK293 cell line that expresses α1β2γ2 GABAA receptors and over-expresses PKCε. […] This 6-fold difference in benzodiazepine potency can be detected without addition of a PKC activator. The assay is performed using an anti-phospho antibody that recognizes γ2S(P)327 in an ELISA format to generate 8 point dose-response curves for each compound. Background values, detected from wells in which no primary antibody was added, are subtracted from sample values. Maximal phosphorylation (positive control) is detected in reactions containing phorbol ester and lacking an inhibitor.
The target in the next test is T4, PKCθ (Homo sapiens, UniProt Q04759).
T4 construct: purchased Invitrogen P2996
T4 sequence (Q04759 whole entry): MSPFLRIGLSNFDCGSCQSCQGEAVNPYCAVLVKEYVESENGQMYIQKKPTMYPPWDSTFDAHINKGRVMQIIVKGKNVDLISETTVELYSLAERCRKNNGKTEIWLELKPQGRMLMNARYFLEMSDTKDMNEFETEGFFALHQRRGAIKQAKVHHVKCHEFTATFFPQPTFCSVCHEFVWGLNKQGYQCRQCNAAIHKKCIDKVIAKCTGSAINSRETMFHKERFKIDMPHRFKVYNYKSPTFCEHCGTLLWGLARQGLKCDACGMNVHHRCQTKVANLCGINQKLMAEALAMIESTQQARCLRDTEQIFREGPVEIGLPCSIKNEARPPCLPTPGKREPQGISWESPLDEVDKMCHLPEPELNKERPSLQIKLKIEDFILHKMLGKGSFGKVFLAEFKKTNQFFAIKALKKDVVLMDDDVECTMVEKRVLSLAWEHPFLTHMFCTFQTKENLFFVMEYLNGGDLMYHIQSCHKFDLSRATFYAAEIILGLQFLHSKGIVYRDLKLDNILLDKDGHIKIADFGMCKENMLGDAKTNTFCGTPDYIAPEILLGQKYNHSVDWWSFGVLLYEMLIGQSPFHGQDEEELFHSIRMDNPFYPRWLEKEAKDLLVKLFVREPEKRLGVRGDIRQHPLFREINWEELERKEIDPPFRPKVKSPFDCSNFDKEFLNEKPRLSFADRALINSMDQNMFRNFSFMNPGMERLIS
Kind of test: Inhibition of novel PKCθ (Example 4). The class given is biochemical.
From the text: Inhibition of PKC theta activity can be measured using the same primary phosphotransferase assay for PKCε except one substitutes recombinant human PKC theta purchased from Invitrogen for PKCε. PKC theta can also be assayed with a fluorescence polarization (FP) assay using the commercially available Protein Kinase C Assay Kit, Red, from Invitrogen (Product ID No P2941), essentially in accordance with the protocol supplied by the manufacturer. The substrate used is […] (Mw 1561), which can be obtained from Invitrogen (Product ID No P2760). The isozyme PKC theta can be obtained from Invitrogen (Product ID No P2996).
as §2

The test system of a further test is C57BL/6 mice. Kind of test: Ethanol-induced loss of righting reflex (LORR) in vivo. Conditions: 10 mg/kg i.p. How it is done:
Compound 1 was administered (10 mg/kg) i.p. to C57BL/6 mice, which were administered 20 min later 3.6 g/kg ethanol i.p. to induce loss of righting. […] These findings indicate that this class of compounds can cross the blood-brain barrier and act as a PKCε inhibitor, and prolong the duration of the LORR in the treated animals. Such increased signs of ethanol intoxication are contemplated to be aversive and to limit ethanol self-administration.

The target of another test is T5, PKCδ (Homo sapiens, UniProt Q05655).
T5 construct: purchased Invitrogen (Carlsbad, CA, USA)
T5 sequence (Q05655 whole entry): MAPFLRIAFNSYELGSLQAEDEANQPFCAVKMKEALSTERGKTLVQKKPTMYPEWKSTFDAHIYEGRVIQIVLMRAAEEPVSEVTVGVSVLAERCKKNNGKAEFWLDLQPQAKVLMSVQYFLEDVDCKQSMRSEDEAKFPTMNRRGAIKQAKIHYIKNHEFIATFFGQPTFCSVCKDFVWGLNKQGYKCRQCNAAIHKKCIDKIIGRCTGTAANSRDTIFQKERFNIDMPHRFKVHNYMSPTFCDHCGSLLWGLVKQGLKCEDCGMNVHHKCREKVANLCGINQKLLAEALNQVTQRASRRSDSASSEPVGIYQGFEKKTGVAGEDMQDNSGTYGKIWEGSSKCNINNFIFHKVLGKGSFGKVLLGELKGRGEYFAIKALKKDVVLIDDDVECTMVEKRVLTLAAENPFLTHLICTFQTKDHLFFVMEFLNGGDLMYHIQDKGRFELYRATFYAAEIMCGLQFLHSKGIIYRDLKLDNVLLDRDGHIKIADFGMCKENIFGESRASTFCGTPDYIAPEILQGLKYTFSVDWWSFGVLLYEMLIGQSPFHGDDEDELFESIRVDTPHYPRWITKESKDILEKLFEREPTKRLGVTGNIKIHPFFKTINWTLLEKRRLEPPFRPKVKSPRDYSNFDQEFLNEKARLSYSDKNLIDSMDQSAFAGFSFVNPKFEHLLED
The test can be described thus: Inhibition of novel PKCδ (Example 4). The class given is biochemical. How it is done: as §1, §2

Setting [5] is: log of molar IC50, read-out: Log IC50 (converted).

`NC(CNC(=O)C1(c2ccc(F)cc2)CCCC1)[C@H]1CC[C@H](C(=O)Nc2ccncc2)CC1` (stereo partly drawn) [Compound 5]: the “Log IC50” value on PKCε [1] (log of molar IC50) was -7.370. Moreover, the “PKCε Log IC50(M)” value at PKCε [2] (log IC50 ± SE, n=3) was -7.37 ± 0.03 M. Moreover, the “activity against atypical PKCζ” value at PKCζ is recorded as “almost no activity”. At PKCγ, the “inhibition of conventional PKCγ” value was “inhibited”.
For orientation: IC50 means the concentration that inhibits the measured activity by half. As for `CC(C)(C(=O)NCC(N)[C@H]1CC[C@H](C(=O)Nc2ccncc2)CC1)c1ccc(Cl)cc1` (stereo partly drawn) [Compound 9], the “Log IC50” value on PKCε [1] (log of molar IC50) is -7.398. In addition, the IC50 at PKCε [1] (read-out: IC50) turned out to be 40 nM. The “activity against atypical PKCζ” value on PKCζ is on record as “almost no activity”. Further, the “inhibition of conventional PKCγ” value at PKCγ was “inhibited”.
Consider `NC(CNC(=O)C1(c2ccc(F)c(F)c2)CC1)[C@H]1CC[C@H](C(=O)Nc2ccncc2)CC1` (stereo partly drawn) [Compound 6], for which the “Log IC50” value at PKCε [1] (log of molar IC50) was -7.282.
Turning to `NC(CNC(=O)C1(c2ccc(F)cc2Cl)CCCC1)[C@H]1CC[C@H](C(=O)Nc2ccncc2)CC1` (stereo partly drawn) [Compound 4], at PKCε [1] (log of molar IC50), the “Log IC50” value was -6.917. Besides, on PKCε [1] (read-out: IC50), the IC50 was determined as 121 nM.
Take `NC(C(=O)NCc1ccc(F)cc1)[C@H]1CC[C@H](C(=O)Nc2ccncc2)CC1` (stereo partly drawn) [Compound 12]: on PKCε [1] (log of molar IC50), the “Log IC50” value is given as -5.625. Moreover, the IC50 on PKCε [1] (read-out: IC50) came to 2370 nM.
As for `NC(C(=O)NC1COc2ccccc21)[C@H]1CC[C@H](C(=O)Nc2ccncc2)CC1` (stereo partly drawn) [Compound 10], on PKCε [1] (log of molar IC50), the “Log IC50” value is on record as -5.695. The IC50 on PKCε [1] (read-out: IC50) stood at 2020 nM.
`CC(C)(C(=O)NCC(N)[C@H]1CC[C@H](C(=O)Nc2ccncc2)CC1)c1cccs1` (stereo partly drawn) [Compound 7]: at PKCε [1] (log of molar IC50), the “Log IC50” value was -6.553. For the same compound, at PKCε [1] (read-out: IC50), the IC50 came to 280 nM.
As for `NC(CNC(=O)C1(c2ccc(F)cc2)CC1)[C@H]1CC[C@H](C(=O)Nc2ccncc2)CC1` (stereo partly drawn) [Compound 3], the “Log IC50” value at PKCε [1] (log of molar IC50) is -6.835. The IC50 on PKCε [1] (read-out: IC50) was determined as 146 nM.
With `NC(C(=O)NCC1(c2ccc(Cl)cc2)CC1)[C@H]1CC[C@H](C(=O)Nc2ccncc2)CC1` (stereo partly drawn) [Compound 2], the values for the IC50 against PKCε [3] and on PKCε [1] (setting [5]) were 1690 nM and 3240 nM, respectively.
For `NC(C(=O)N[C@@H]1CCCc2ccccc21)[C@H]1CC[C@H](C(=O)Nc2ccncc2)CC1` (stereo partly drawn) [Compound 11], the IC50 on PKCε [1] (setting [5]) and on PKCε [1] (read-out: IC50) was 3090 nM each time.
The term inhibition denotes the share of the control response that was lost under treatment. By Ki is commonly meant the equilibrium dissociation constant of an inhibitor or competing ligand from its target. With `NC(CNC(=O)C1(c2ccc(Cl)cc2)CC1)[C@H]1CC[C@H](C(=O)Nc2ccncc2)CC1` (relative stereo) [Compound 1, trans-4-[1-Amino-2-[[[1-(4-chlorophenyl)cyclopropyl]carbonyl]amino]ethyl]-N-4-pyridinyl-cyclohexylcarboxamide], the IC50 at PKCε [3] is 131 nM; against PKCε [4], 8.9 nM; on PKCθ (read-out: PKCθ Log IC50 (converted)), 372 nM; on PKCε [1] (read-out: IC50), 56.6 nM; at PKCε [2] (read-out: PKCε Log IC50 (converted)), 55 nM; on PKCδ (read-out: PKCδ Log IC50 (converted)), 708 nM. The inhibition at 10 µM at PKCθ (10 µM inhibitor, n=3, read-out: Percent inhibition of PKC activity, Novel PKCθ) stood at 96.9 ± 1.1%; at PKCζ (10 µM inhibitor, n=3, read-out: Percent inhibition of PKC activity, Atypical PKCζ), 55.9 ± 3.8%; on PKCγ (10 µM inhibitor, n=3, read-out: Percent inhibition of PKC activity, Conventional PKCγ) it was 16.7 ± 3.8%; at PKCδ (10 µM inhibitor, n=3, read-out: Percent inhibition of PKC activity, Novel PKCδ) it was 96.3 ± 0.7%. The Ki is 91.7 nM at PKCθ (n=3); below 20 nM on PKCε [2] (PKCε, read-out: Ki); 17 nM on PKCε [2] (n=3, read-out: PKCε Ki); 173 nM at PKCδ (n=3). Further, the “increase of LORR duration” value with C57BL/6 mice (20 min before 3.6 g/kg ethanol i.p., versus vehicle-treated mice, p = 0.036) was 45%. Besides, the LORR duration in the test on C57BL/6 mice (drug-treated mice (n=10), 3.6 g/kg ethanol i.p., vehicle 31.4 ± 4.9 (n=8)) stood at 45.7 ± 4.0. The “inhibition of conventional PKCγ” value on PKCγ was “inhibited”.
On to `NC(CNC(=O)C1CCc2cc(Cl)ccc21)[C@H]1CC[C@H](C(=O)Nc2ccncc2)CC1` (stereo partly drawn) [Compound 8], for which, on PKCε [1] (log of molar IC50), the “Log IC50” value is -6.445. Also, the IC50 on PKCε [1] (read-out: IC50) turned out to be 359 nM.
